Test results from PubChem BioAssay (NCI).
Values joined by “and” are separate entries in the source; they are usually repeats but may differ in a detail not shown here. Equal entries are not always repeated.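 Five concentrations, 48 hours, 96-well plates. GI50 marks 50% less growth. TGI denotes the concentration required for complete inhibition of growth.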

The compounds below were run on MDA-MB-468 breast (assay: NCI tumour cell line growth inhibition, 48 h).
In the case of `c1cnn2ncc(-c3ccnc(NCCCN4CCOCC4)n3)c2c1`, the GI50 is reported as 3450 nM and the TGI is reported as 10000 nM.
For `CC(C)=CCc1c(O)c(CC=C(C)C)c2c(c1O)C(=O)C1=C[C@@H]3C[C@H]4C(C)(C)O[C@@](C/C=C(\C)C(=O)O)(C3=O)[C@@]14O2`, the GI50 was 24100 nM and the TGI was 48600 nM.
`O=S(=O)(Nc1cc(Sc2cccc3cccnc23)c(O)c2ccccc12)c1ccc(F)cc1` was tested, and the GI50 was 1800 nM and the TGI was 4080 nM.
With `COc1ccc(-c2nc(Nc3cc(C)[nH]n3)c3ccccc3n2)cc1` the GI50 was 3120 nM and the TGI was greater than 53400 nM.
`CNCCCNCCCCNCCCN1C(=O)c2ccc3c4c(ccc(c24)C1=O)C(=O)N(CCCNCc1ccccc1OC)C3=O` gave a GI50 of 1890 nM and a TGI of 11700 nM.
For `CN(C)CCCn1c(=O)c2ccccc2c2ccccc21`, the GI50 was 6180 nM and the TGI was 20100 nM.
`Cc1ccc(/C=N\NC(=O)c2[nH]c3ccc(F)cc3c2-c2ccccc2)cc1` was tested, and the GI50 was 24 nM and the TGI was 67.4 nM.
`CN1CCN(C(=O)c2cc(-c3ccc4ncnc(N5CCc6cc(F)c(Cl)cc65)c4c3)cnc2N)CC1` showed a GI50 of 120 nM and a TGI of 365 nM.
With `O=C1OCC2=C1C(c1ccccc1)c1cc3c(cc1N2)OCO3` (stereo not drawn) the GI50 was 27 nM and the TGI was 600 nM.
For `Nc1nc(OCc2ccccc2)c2[nH]cnc2n1`, the GI50 was 28100 nM and 34900 nM and the TGI was 207000 nM.
For `COc1ccc(-c2[nH]c3ccccc3c2-c2ccc(OC)cc2)cc1`, the GI50 was 2430 nM and the TGI was 7180 nM.
`CN1CCN(Cc2ccc(NC(=O)c3cncc(C#Cc4cnc(N)nc4)c3)cc2C(F)(F)F)CC1` was tested, and the GI50 was 684 nM and the TGI was 7660 nM.
In the case of `C=CC(=O)Nc1cccc(Oc2nc(Nc3ccc(N4CCN(C)CC4)cc3)nc3ccsc23)c1`, the GI50 is reported as 267 nM and 570 nM and the TGI is reported as 1750 nM and 3360 nM.
`CCCCCCCCCCCCCCCCCC[n+]1ccc2c(C)c3c(c(C)c2c1)c1cc(O)ccc1n3CC` was tested, and the GI50 was 628 nM and the TGI was 4110 nM.
`CCc1ccc2c(c1)N(CCO)C1=C(C(=O)OC1)C2c1cccc(Br)c1` (stereo not drawn) was tested, and the GI50 was 164 nM and the TGI was 660 nM.
For `CCCN(CCS(C)(=O)=O)Cc1ccc(-c2ccc3ncnc(Nc4ccc(OCc5cccc(F)c5)c(Cl)c4)c3c2)o1`, the GI50 was 75.2 nM and the TGI was 877 nM.
`N#Cc1c(N2CCOCC2)nc(=S)[nH]c1-c1ccco1` was tested, and the GI50 was 3510 nM and the TGI was greater than 100000 nM.
In the case of `CCOc1ccccc1C(=O)N1CCN(c2cc(Cl)cc(Cl)c2)CC1`, the GI50 is reported as 29.2 nM and the TGI is reported as 2870 nM.
Compound `O=C1CCC(N2Cc3cc(CNC(=O)C(F)(F)c4ccc(Cl)cc4)ccc3C2=O)C(=O)N1` (stereo not drawn) has a GI50 of 48.1 nM.
`COc1cc2c(cc1OCCCn1c(-c3ccccn3)nc3ccccc31)N=C[C@@H]1CCCN1C2=O` was tested, and the GI50 was 1940 nM and the TGI was 5640 nM.
Work on `O=C(/C=C\c1cccc([N+](=O)[O-])c1)/C=C/c1cccc([N+](=O)[O-])c1` yielded a GI50 of 3430 nM and a TGI of 55500 nM.
In the case of `O=C1/C(=C/c2ccccc2[N+](=O)[O-])Cc2ccccc21`, the GI50 is reported as 1380 nM and the TGI is reported as 3030 nM.
Work on `CC(C)NCCCn1c(Sc2cc3c(cc2I)OCO3)nc2c(N)ncnc21` yielded a GI50 of 82.7 nM and a TGI of 3620 nM.
`O=C1c2c(c3c4ccccc4[nH]c3c3ccc4ccccc4c23)C(=O)N1CCN1CCNCC1` gave a GI50 of 1650 nM and a TGI of 3300 nM.
Work on `OCC1OC(n2cnc3c(N/N=C\c4ccccn4)ncnc32)C(O)C1O` (stereo not drawn) yielded a GI50 of 187 nM and a TGI of 508 nM.
Work on `COc1ccc2cc1Oc1ccc(cc1)C[C@H]1c3c(cc4c(c3Oc3cc5c(cc3OC)CCN(C)[C@@H]5C2)OCO4)CCN1C` yielded a GI50 of 593 nM and a TGI of 2310 nM.
`CN1C(=O)N(C)C2C1NN=c1s/c(=C\c3ccc(C(F)(F)F)cc3)c(=O)n12` (stereo not drawn) gave a GI50 of 510 nM and a TGI of 26200 nM.
`C/C(=C\c1ccc2ccccc2c1)[N+](=O)[O-]` was tested, and the GI50 was 1560 nM and the TGI was 3060 nM.
For `OCc1ccc(N2CCCC2c2ccccc2)cc1Cl` (stereo not drawn), the GI50 was 117 nM and the TGI was 448 nM.
Compound `CN[C@@H](C)C(=O)N[C@H](C(=O)N1CCC[C@H]1C(=O)Nc1sc(-c2ncco2)nc1-c1ccccc1)C1CCCCC1` has a GI50 of 11400 nM and a TGI of 35700 nM.
For `FC(F)(F)c1ccc(-c2cnc(-c3ncon3)nc2NC2CCCCCC2)cc1`, the GI50 was 48500 nM and the TGI was greater than 100000 nM.
Compound `COc1ccc2c(c1)N(CCO)C1=C(C(=O)OC1)C2c1cccc(F)c1` (stereo not drawn) has a GI50 of 202 nM.
In the case of `C#Cc1nc(/C=C/CCCCCCC(=O)NO)cs1`, the GI50 is reported as 2130 nM and the TGI is reported as 8650 nM.
In the case of `CC(C)C[C@H](NC(=O)CNC(=O)c1cc(Cl)ccc1Cl)B1OC(=O)CC(CC(=O)O)(C(=O)O)O1` (stereo partly drawn), the GI50 is reported as 17 nM and the TGI is reported as 38.5 nM.
Compound `O=C1OCC2=C1C(c1ccc(Cl)c(Cl)c1)c1cc3c(cc1N2CCO)OCCO3` (stereo not drawn) has a GI50 of 95 nM and a TGI of 394 nM.
Work on `O=S(=O)(c1ccc(Cl)cc1)C(Cl)(Cl)Cl` yielded a GI50 of 1440 nM and a TGI of 5500 nM.
Work on `O=C(/C=C/c1cc2ccccc2[nH]c1=O)/C=C/c1cc2ccccc2[nH]c1=O` yielded a GI50 of 7330 nM and a TGI of 15500 nM.
`CC1=C2[C@@H](CC1)[C@]1(C)O[C@@](c3ccccc3)(C[C@H]1OC(=O)CO)[C@H]2OC(=O)/C=C/c1ccccc1` gave a GI50 of 17900 nM and a TGI of 46000 nM.
For `O=C(Nc1ccc(OCc2nnc(-c3ccc(Cl)cc3)o2)c(F)c1)Nc1ccc(Cl)c(C(F)(F)F)c1`, the GI50 was 1800 nM and the TGI was 7370 nM.
Work on `CO[C@H]1CC(O[C@@H]2/C(C)=C/C[C@@H]3C[C@@H](C[C@]4(C=C[C@H](C)[C@@H](C5CCCCC5)O4)O3)OC(=O)[C@@H]3C=C(C)[C@@H](O)[C@H]4OC/C(=C\C=C\[C@@H]2C)[C@]43O)O[C@@H](C)C1O[C@H]1C[C@H](OC)[C@@H](O)[C@H](C)O1` (stereo partly drawn) yielded a GI50 of 1400 nM and a TGI of 3010 nM.
`CCCCCCCCCCCCCCCCCC1=NCCN1CCOC1=C(Cl)C(=O)c2ccccc2C1=O` showed a GI50 of 1640 nM and a TGI of 3270 nM.
`C1CCC([PH+](C2CCCCC2)C2CCCCC2[PH+](C2CCCCC2)C2CCCCC2)CC1.[Au].[CH-]1CCCCC1CC1CCCC[N-]1` (stereo not drawn) showed a GI50 of 161 nM and a TGI of 631 nM.
In the case of `O=C1c2cccnc2C(=O)c2c1c(C(=O)NCCCN1CCCCC1)c1ccccn21`, the GI50 is reported as 531 nM and the TGI is reported as 1890 nM.
Work on `CN=c1ccc2nc3ccc(N)cc3sc-2c1` yielded a GI50 of 2900 nM and a TGI of 17100 nM.
`C[C@@H]1CN(Cc2ccc(F)cc2)[C@@H](C)CN1C(=O)c1cc2c(C(=O)C(=O)N(C)C)cn(C)c2cc1Cl` gave a GI50 of 13300 nM and a TGI of 45000 nM.
